Measurements taken from ChEMBL document CHEMBL1150701, “A direct bioautographic tlc assay for compounds possessing antibacterial activity” (1987).
Calls of active or inactive are those of the source. No cut-off for these calls is given here.

Legend:
Bacillus subtilis [1] = test: Antibacterial activity against Bacillus subtilis ATCC 6633 at 5 ug after 48 hrs by silica gel plate-based INT-formazan method; format: functional, organism-based
Escherichia coli [2] = test: Antibacterial activity against Escherichia coli ATCC 25922 at 5 ug after 48 hrs by silica gel plate-based INT-formazan method; format: functional, organism-based
Bacillus subtilis [3] = test: Antibacterial activity against Bacillus subtilis ATCC 6633 after 48 hrs by silica gel plate-based INT-formazan method; format: functional
Escherichia coli [4] = test: Antibacterial activity against Escherichia coli ATCC 25922 after 48 hrs by silica gel plate-based INT-formazan method; format: functional

| SMILES | Activity (Bacillus subtilis [1]) | Activity (Escherichia coli [2]) | MIC (Bacillus subtilis [3]) [µg] | MIC (Escherichia coli [4]) [µg] |
| --- | --- | --- | --- | --- |
| CC[C@@]1(O)C(=O)OCc2c1cc1n(c2=O)Cc2cc3cc(O)ccc3nc2-1 | inactive | inactive |  |  |
| COc1cc([C@@H]2c3cc4c(c(O)c3C[C@H]3COC(=O)[C@@H]32)OCO4)cc(OC)c1O | Active | Active |  |  |
| O=c1c(O)c(-c2ccc(O)c(O)c2)oc2cc(O)cc(O)c12 [QUERCETIN] |  |  | 5 | 5 |
| CC1=CC(=O)[C@@H](O)[C@]2(C)[C@H]3[C@]4(O)OC[C@]35[C@H]([C@@H](C)[C@H]4O)[C@@H](O)C(=O)O[C@@H]5C[C@@H]12 | inactive | inactive |  |  |
| COc1cc([C@@H]2c3cc4c(c(O)c3C[C@H]3COC(=O)[C@@H]32)OCO4)cc(OC)c1OC | inactive | inactive |  |  |
| O=C(N[C@H](CO)[C@H](O)c1ccc([N+](=O)[O-])cc1)C(Cl)Cl [CHLORAMPHENICOL] |  |  | 0.01 | 0.02 |
| O=C(O)/C=C/c1ccc(O)cc1 [COUMARIC ACID] |  |  | 2.5 | 5 |
| OC[C@H]1O[C@@](CO)(O[C@H]2O[C@H](CO)[C@@H](O)[C@H](O)[C@H]2O)[C@@H](O)[C@@H]1O [SUCROSE] |  |  | >20 | >20 |
| COC(=O)[C@]12OC[C@]34[C@H]([C@@H](O)[C@@H]1O)[C@@]1(C)[C@H](O)C(=O)C=C(C)[C@@H]1C[C@H]3OC(=O)[C@H](OC(=O)CC(C)C)[C@@H]24 | inactive | inactive |  |  |
| CC[C@H](CC[C@@H](C)[C@H]1CC[C@H]2[C@@H]3CC=C4C[C@@H](O)CC[C@]4(C)[C@H]3CC[C@]12C)C(C)C [BETA-SITOSTEROL] |  |  | >20 | >20 |
| COc1cc([C@@H]2c3cc4c(cc3[C@H](O)[C@H]3COC(=O)[C@H]23)OCO4)cc(OC)c1OC | Active | Active |  |  |
| CC1(C)S[C@@H]2[C@H](NC(=O)COc3ccccc3)C(=O)N2[C@H]1C(=O)O [PENICILLIN V] |  |  | 0.005 | >2 |
| CC[C@@]1(O)C(=O)OCc2c1cc1n(c2=O)Cc2cc3c(OC)cccc3nc2-1 | inactive | inactive |  |  |
| CCCCCCCCCCCCCCCC(=O)O [PALMITIC ACID] |  |  | >20 | >20 |
| CC[C@@]1(O)C(=O)OCc2c1cc1n(c2=O)Cc2cc3ccccc3nc2-1 | inactive | inactive |  |  |
| CC1=CC(=O)[C@@H](O)[C@]2(C)[C@H]3[C@@]4(O)OC[C@@]35[C@@H](C[C@@H]12)OC(=O)C[C@H]5[C@@H](C)[C@H]4O | inactive | inactive |  |  |
| CC[C@H](/C=C/[C@@H](C)[C@H]1CC[C@H]2[C@@H]3CC=C4C[C@@H](O)CC[C@]4(C)[C@H]3CC[C@]12C)C(C)C [STIGMASTEROL] |  |  | >20 | >20 |
| COc1cc([C@@H]2c3cc4c(cc3C[C@H]3COC(=O)[C@@H]32)OCO4)cc(OC)c1O | inactive | inactive |  |  |
| CC(=O)O[C@H]1C(=O)O[C@@H]2C[C@H]3C(C)=CC(=O)[C@@H](O)[C@]3(C)[C@H]3[C@]4(O)OC[C@]32[C@@H]1[C@@H](C)[C@H]4O | inactive | inactive |  |  |
